In US9499492B2, “4-(ortho)-fluorophenyl-5-fluoropyrimidin-2-yl amines containing a sulfoximine group” (BAYER PHARMA AKTIENGESELLSCHAFT, priority 2012, dated 2016):
Like-named read-outs stand apart in the source and are kept apart here.

Experiments:
CDK2/CycE = CDK2/CycE (Homo sapiens (Human), UniProt P24941); assay: CDK2/CycE kinase assay (Method 2); type: biochemical; conditions: 10 μM ATP
[1] = biological target: human carbonic anhydrase-1 (Homo sapiens (Human), UniProt P00915); assay: Carbonic anhydrase assay, carbonic anhydrase-1 (Method 4); type: biochemical; conditions: read-out: Inhibition of Carbonic anhydrase-1 IC50
Sequence of human carbonic anhydrase-1 (P00915 whole entry): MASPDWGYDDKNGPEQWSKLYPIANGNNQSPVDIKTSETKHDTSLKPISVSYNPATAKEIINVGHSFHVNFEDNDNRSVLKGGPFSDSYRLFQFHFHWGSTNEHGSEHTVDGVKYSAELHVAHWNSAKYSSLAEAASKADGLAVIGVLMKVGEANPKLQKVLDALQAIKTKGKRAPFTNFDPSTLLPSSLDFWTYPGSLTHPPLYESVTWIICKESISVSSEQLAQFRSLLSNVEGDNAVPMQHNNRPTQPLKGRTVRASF
Description: (§1) 4. Carbonic Anhydrase Assay
(§2) 2 μL of the test compounds, dissolved in DMSO (100-fold final concentration), in a concentration range of 0.03-10 μmol/L (final), was pipetted as quadruplicates into the wells of a 96-hole microtiter plate. Wells that contained the solvent without test compounds were used as reference values (1. Wells without carbonic anhydrase for correction of the non-enzymatic hydrolysis of the substrate, and 2. Wells with carbonic anhydrase for determining the activity of the non-inhibited enzyme).
(§3) 188 μL of assay buffer (10 mmol/L of Tris/HCl, pH 7.4, 80 mmol/L of NaCl), with or without 3 units/well of carbonic anhydrase-1 [=human carbonic anhydrase-1 (Sigma, #C4396)] in order to determine carbonic anhydrase-1 inhibition or 3 units/well of carbonic anhydrase-2 [=human carbonic anhydrase-2 (Sigma, #C6165)] for measuring carbonic anhydrase-2 inhibition, was pipetted into the wells of the microtiter plate.

[2] = biological target: human carbonic anhydrase-2 (Homo sapiens (Human), UniProt P00918); assay: Carbonic anhydrase assay, carbonic anhydrase-2 (Method 4); type: biochemical; conditions: read-out: Inhibition of Carbonic anhydrase-2 IC50
Description: as §1
The principle of the assay is based on the hydrolysis of 4-nitrophenyl acetate by carbonic anhydrases (Pocker & Stone, Biochemistry, 1967, 6, 668), with subsequent photometric determination of the dye product 4-nitrophenolate at 400 nm by means of a 96-channel spectral photometer.
as §2, §3

[3] = system: HeLa, human cervical tumour cells; assay: Proliferation assay, HeLa (Method 3); type: cell-based; conditions: 4 days, crystal violet, read-out: Inhibition of HeLa cell proliferation IC50
In short: (§4)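 Four-day compound treatment (0.001–10 μM, 0.5% DMSO final) began 24 h after seeding. Readout: crystal violet, 595 nm, referenced to a zero-point plate and vehicle wells.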

[4] = system: HeLa-MaTu-ADR, multidrug-resistant human cervical carcinoma cells; assay: Proliferation assay, HeLa-MaTu-ADR (Method 3); type: cell-based; conditions: 4 days, crystal violet, read-out: Inhibition of HeLa-MaTu-ADR cell proliferation IC50
Description: (§5) After 24 hours, the cells of one plate (zero-point plate) were stained with crystal violet (see below), while the medium of the other plates was replaced by fresh culture medium (200 μl), to which the test substances were added in various concentrations (0 μM, as well as in the range of 0.001-10 μM; the final concentration of the solvent dimethyl sulfoxide was 0.5%). The cells were incubated for 4 days in the presence of test substances. Cell proliferation was determined by staining the cells with crystal violet: the cells were fixed by adding 20 μl/measuring point of an 11% glutaric aldehyde solution for 15 minutes at room temperature. After three washing cycles of the fixed cells with water, the plates were dried at room temperature. The cells were stained by adding 100 μl/measuring point of a 0.1% crystal violet solution (pH 3.0). After three washing cycles of the stained cells with water, the plates were dried at room temperature. The dye was dissolved by adding 100 μl/measuring point of a 10% acetic acid solution. The extinction was determined by photometry at a wavelength of 595 nm. The change of cell number, in percent, was calculated by normalization of the measured values to the extinction values of the zero-point plate (=0%) and the extinction of the untreated (0 μm) cells (=100%).

[5] = system: NCI-H460, human non-small cell lung carcinoma cells; assay: Proliferation assay, NCI-H460 (Method 3); type: cell-based; conditions: NCI-H460, 4 days, crystal violet, read-out: Inhibition of H460 cell proliferation IC50
Description: as §5

[6] = system: DU 145, hormone-independent human prostate carcinoma cells; assay: Proliferation assay, DU 145 (Method 3); type: cell-based; conditions: DU145, 4 days, crystal violet, read-out: Inhibition of DU145 cell proliferation IC50
Description: as §5

[7] = system: Caco-2, human colorectal carcinoma cells; assay: Proliferation assay, Caco-2 (Method 3); type: cell-based; conditions: Caco-2, 4 days, crystal violet, read-out: Inhibition of Caco-2 cell proliferation IC50
Description: as §5

[8] = system: B16F10, mouse melanoma cells; assay: Proliferation assay, B16F10 (Method 3); type: cell-based; conditions: B16F10, 4 days, crystal violet, read-out: Inhibition of B16F10 cell proliferation IC50
Description: as §5

CDK9/CycT1 [9] = biological target: T1, CDK9/CycT1 (Homo sapiens (Human), UniProt P50750); assay: CDK9/CycT1 kinase assay (Method 1a); type: biochemical; conditions: for Selectivity CDK9/CDK2: derived from Methods 1a. and 2.
T1 sequence (P50750 whole entry): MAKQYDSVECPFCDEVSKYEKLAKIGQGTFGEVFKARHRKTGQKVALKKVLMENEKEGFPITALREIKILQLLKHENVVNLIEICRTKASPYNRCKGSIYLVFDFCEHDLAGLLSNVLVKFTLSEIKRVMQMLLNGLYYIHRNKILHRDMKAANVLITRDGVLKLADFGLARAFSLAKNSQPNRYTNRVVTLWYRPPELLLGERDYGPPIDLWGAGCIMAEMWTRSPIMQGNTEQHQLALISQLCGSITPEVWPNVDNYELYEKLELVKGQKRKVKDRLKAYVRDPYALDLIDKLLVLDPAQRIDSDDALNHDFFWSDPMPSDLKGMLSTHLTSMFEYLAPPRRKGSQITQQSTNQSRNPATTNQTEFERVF
T1 sequence (O60563 whole entry partner): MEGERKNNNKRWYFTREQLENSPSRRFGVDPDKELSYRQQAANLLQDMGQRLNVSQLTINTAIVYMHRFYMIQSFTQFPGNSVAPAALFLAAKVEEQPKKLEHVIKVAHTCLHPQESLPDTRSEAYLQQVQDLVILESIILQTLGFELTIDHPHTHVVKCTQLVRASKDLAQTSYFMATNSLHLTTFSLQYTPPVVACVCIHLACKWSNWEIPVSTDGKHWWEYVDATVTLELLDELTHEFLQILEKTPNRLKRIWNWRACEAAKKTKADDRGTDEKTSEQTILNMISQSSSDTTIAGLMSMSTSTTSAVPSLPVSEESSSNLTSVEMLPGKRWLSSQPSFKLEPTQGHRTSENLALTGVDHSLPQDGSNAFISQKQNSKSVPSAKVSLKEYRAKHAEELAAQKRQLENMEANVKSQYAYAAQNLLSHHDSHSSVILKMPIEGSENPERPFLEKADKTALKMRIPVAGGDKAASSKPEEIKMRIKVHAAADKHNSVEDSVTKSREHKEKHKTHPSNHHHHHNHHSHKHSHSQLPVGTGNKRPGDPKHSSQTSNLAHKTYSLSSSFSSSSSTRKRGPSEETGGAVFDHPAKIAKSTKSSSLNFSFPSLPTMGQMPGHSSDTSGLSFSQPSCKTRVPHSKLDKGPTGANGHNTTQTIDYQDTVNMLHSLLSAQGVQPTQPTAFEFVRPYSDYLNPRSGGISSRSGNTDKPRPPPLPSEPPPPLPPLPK

[10] = system: A2780, human ovarian carcinoma cells; assay: Proliferation assay, A2780 (Method 3); type: cell-based; conditions: A2780, 4 days, crystal violet; read-out: Inhibition of A2780 cell proliferation IC50
In short: as §4

[11] = system: MOLM-13 human acute myeloid leukemia cells; assay: Proliferation assay, MOLM-13 (Cell Titre-Glo, Method 3); type: cell-based; conditions: MOLM-13, 72-hour exposure, read-out: Inhibition of MOLM-13 cell proliferation IC50
Description: Non-adherent MOLM-13 human acute myeloid leukemia cells (DSMZ ACC 554) were seeded at a density of 5,000 cells/well in a 96-well multititer plate in 100 μL of growth medium supplemented 10% fetal calf serum. After 24 hours, cell viability of one plate (zero-point plate) was determined with the Cell Titre-Glo Luminescent Cell Viability Assay (Promega), while 50 μL of test compound containing medium was added to the wells of the other plates (final concentrations in the range of 0.001-10 μM and DMSO controls; the final concentration of the solvent dimethyl sulfoxide was 0.5%). Cell viability was assessed after 72-hour exposure with the Cell Titre-Glo Luminescent Cell Viability Assay (Promega).

[12] = In vitro metabolic stability in rat hepatocytes (Method 5); type: in vitro ADME, Han Wistar rat; conditions: 1 μM test compound
Description: 5. Investigation of In Vitro Metabolic Stability in Rat Hepatocytes
Hepatocytes from Han Wistar rats were isolated via a 2-step perfusion method. After perfusion, the liver was carefully removed from the rat: the liver capsule was opened and the hepatocytes were gently shaken out into a Petri dish with ice-cold Williams medium E (purchased from Sigma Aldrich Life Science, St Louis, Mo.). The resulting cell suspension was filtered through sterile gaze in 50 ml falcon tubes and centrifuged at 50×g for 3 min at room temperature. The cell pellet was resuspended in 30 ml WME and centrifuged through a Percoll® gradient for 2 times at 100×g. The hepatocytes were washed again with Williams' medium E (WMA) and resuspended in medium containing 5% Fetal calf serum (FCS, purchased from Invitrogen, Auckland, NZ). Cell viability was determined by trypan blue exclusion.
For the metabolic stability assay liver cells were distributed in WME containing 5% FCS to glass vials at a density of 1.0×10^6 vital cells/ml. The test compound was added to a final concentration of 1 μM. During incubation, the hepatocyte suspensions were continuously shaken and aliquots were taken at 2, 8, 16, 30, 45 and 90 min, to which equal volumes of cold acetonitrile were immediately added. Samples were frozen at −20° C. over night, after subsequently centrifuged for 15 minutes at 3000 rpm and the supernatant was analyzed with an Agilent 1200 HPLC-system with LCMS/MS detection.
The half-life of a test compound was determined from the concentration-time plot. From the half-life the intrinsic clearances were calculated. Together with the additional parameters liver blood flow, amount of liver cells in vivo and in vitro.

CDK9/CycT1 [13] = biological target: T1, CDK9/CycT1; assay: CDK9/CycT1 high ATP kinase assay (Method 1b); type: biochemical; conditions: 2 mM ATP
In short: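 Full-length His-tagged human CDK9/CycT1 (insect cells, ~0.5 μg/ml) pre-incubated 15 min at 22 °C with compound in Tris pH 8.0/MgCl2/DTT buffer; biotinylated peptide substrate, high ATP. After detection reagents, 1 h at 22 °C; TR-FRET 665/620 nm emission ratio (350 nm excitation) measured phosphorylation.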

| Compound | IC50 (CDK2/CycE) [nM] | IC50 ([3]; Homo sapiens, 96 h) [nM] | Selectivity CDK9/CDK2 (CDK9/CycT1 [9]) | IC50 [10] [nM] | maximal calculated oral bioavailability (Fmax) based on stability data in rat Hepatocytes [12] [%] | IC50 [3] [nM] | IC50 [11] [nM] | further results |
| --- | --- | --- | --- | --- | --- | --- | --- | --- |
| CS(=O)(Cc1cc(Br)cc(Nc2ncc(F)c(-c3ccc(F)cc3F)n2)c1)=NC#N (racemic) [Example 18, (rac)-[(3-Bromo-5-{[4-(2,4-difluorophenyl)-5-fluoropyrimidin-2-yl]amino}benzyl)(methyl)oxido-λ^6-sulfanylidene]cyanamide] | 470 |  |  |  |  |  |  | IC50 [1]: > 10000 nM; IC50 [2]: > 10000 nM |
| COc1cc(CS(C)(=O)=NC#N)cc(Nc2ncc(F)c(-c3ccc(F)cc3F)n2)c1 (racemic) [Example 20, (rac)-[(3-{[4-(2,4-Difluorophenyl)-5-fluoropyrimidin-2-yl]amino}-5-methoxybenzyl)(methyl)oxido-λ^6-sulfanylidene]cyanamide] | 230 | 320 |  |  |  |  |  | IC50 ([4]; Homo sapiens, 96 h): 330 nM; IC50 ([5]; Homo sapiens, NCI-H460, 96 h): 384 nM; IC50 ([6]; Homo sapiens, DU-145, 96 h): 340 nM; IC50 ([7]; Homo sapiens, Caco-2, 96 h): 344 nM; IC50 ([8]; Mus musculus, B16-F10, 96 h): 321 nM |
| CS(=N)(=O)Cc1cc(Nc2ncc(F)c(-c3ccc(F)cc3F)n2)cc(C(F)(F)F)c1 (single isomer, unassigned) [Example 5, 4-(2,4-Difluorophenyl)-5-fluoro-N-{3-[(S-methylsulfonimidoyl)methyl]-5-(trifluoromethyl)phenyl}pyrimidin-2-amine] |  | 840 | 72 | 95 | 77 |  |  | IC50 ([11]; Homo sapiens, MOLM-13, 72 h): 316 nM |
| CS(=N)(=O)Cc1cc(Nc2ncc(F)c(-c3ccc(F)cc3F)n2)cc(C(F)(F)F)c1 (single isomer, unassigned) [Example 6, 4-(2,4-Difluorophenyl)-5-fluoro-N-{3-[(S-methylsulfonimidoyl)methyl]-5-(trifluoromethyl)phenyl}pyrimidin-2-amine] |  |  | 50 | 300 | 71 | 950 | 374 |  |
| CS(=O)(Cc1cc(Nc2ncc(F)c(-c3ccc(F)cc3F)n2)cc(S(F)(F)(F)(F)F)c1)=NC(N)=O (single isomer, unassigned) [Example 34, 1-{[3-{[4-(2,4-Difluorophenyl)-5-fluoropyrimidin-2-yl]amino}-5-(pentafluoro-λ^6-sulfanyl)benzyl](methyl)oxido-λ^6-sulfanylidene}urea] |  |  |  | 99 | 90 | 172 | 39 | IC50 (CDK9/CycT1 [9]; 10 μM ATP): 4 nM; IC50 (CDK9/CycT1 [13]): 11 nM; IC50 [4]: 134 nM; IC50 [5]: 317 nM; IC50 [6]: 142 nM; IC50 [7]: 202 nM; IC50 [8]: 323 nM |
